Format in all cases: biochemical
The target of one test is Jarid1A (Homo sapiens (Human), UniProt P29375). Briefly: Jarid1A in vitro enzyme inhibition assay (TR-FRET). An excerpt: The enzymatic assay of Jarid1A activity is based upon Time Resolved-Fluorescence Resonance Energy Transfer (TR-FRET) detection.
For orientation: Time-resolved FRET reads energy transfer from a long-lived donor to a nearby acceptor.

The next test deals with Jarid1B (Homo sapiens (Human), UniProt Q9UGL1). Description: Jarid1B in vitro enzyme inhibition assay (TR-FRET).
The next test deals with JMJD2C (Homo sapiens (Human), UniProt Q9H3R0). Description: JMJD2C in vitro enzyme inhibition assay (TR-FRET).

Bounds are passed on as bounds.

JMJD2C, sequence (Q9H3R0 2-372): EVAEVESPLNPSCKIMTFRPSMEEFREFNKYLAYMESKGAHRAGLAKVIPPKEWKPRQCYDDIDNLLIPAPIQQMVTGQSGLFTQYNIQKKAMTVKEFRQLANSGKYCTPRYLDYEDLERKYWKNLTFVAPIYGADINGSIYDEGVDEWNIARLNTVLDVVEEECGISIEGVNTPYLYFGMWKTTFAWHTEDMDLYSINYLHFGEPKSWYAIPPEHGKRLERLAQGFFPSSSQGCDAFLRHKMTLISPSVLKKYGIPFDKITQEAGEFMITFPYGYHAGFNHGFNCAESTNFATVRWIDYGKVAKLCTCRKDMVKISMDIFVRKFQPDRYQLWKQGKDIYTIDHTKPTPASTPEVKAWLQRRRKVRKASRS
Jarid1B, sequence (Q9UGL1 2-751): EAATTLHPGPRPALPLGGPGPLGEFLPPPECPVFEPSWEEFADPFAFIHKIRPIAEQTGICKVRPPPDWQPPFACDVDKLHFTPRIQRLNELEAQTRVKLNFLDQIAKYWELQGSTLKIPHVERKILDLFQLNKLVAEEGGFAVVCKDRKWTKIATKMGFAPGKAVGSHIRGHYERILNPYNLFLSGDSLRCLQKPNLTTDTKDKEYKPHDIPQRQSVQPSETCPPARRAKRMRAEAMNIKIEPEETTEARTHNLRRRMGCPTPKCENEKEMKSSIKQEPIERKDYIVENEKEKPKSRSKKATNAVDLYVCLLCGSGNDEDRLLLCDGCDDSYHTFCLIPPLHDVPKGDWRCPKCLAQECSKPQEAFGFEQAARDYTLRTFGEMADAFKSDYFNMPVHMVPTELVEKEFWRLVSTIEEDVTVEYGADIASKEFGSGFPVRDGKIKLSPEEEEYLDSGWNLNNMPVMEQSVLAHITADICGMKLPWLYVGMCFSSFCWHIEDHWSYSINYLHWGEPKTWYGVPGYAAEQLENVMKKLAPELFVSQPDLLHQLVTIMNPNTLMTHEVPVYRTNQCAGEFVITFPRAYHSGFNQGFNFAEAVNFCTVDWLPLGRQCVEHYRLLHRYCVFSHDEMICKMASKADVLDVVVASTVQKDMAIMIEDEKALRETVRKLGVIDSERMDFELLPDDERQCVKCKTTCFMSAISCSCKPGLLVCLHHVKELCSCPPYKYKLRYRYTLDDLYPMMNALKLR
Jarid1A, sequence (P29375 1-1090): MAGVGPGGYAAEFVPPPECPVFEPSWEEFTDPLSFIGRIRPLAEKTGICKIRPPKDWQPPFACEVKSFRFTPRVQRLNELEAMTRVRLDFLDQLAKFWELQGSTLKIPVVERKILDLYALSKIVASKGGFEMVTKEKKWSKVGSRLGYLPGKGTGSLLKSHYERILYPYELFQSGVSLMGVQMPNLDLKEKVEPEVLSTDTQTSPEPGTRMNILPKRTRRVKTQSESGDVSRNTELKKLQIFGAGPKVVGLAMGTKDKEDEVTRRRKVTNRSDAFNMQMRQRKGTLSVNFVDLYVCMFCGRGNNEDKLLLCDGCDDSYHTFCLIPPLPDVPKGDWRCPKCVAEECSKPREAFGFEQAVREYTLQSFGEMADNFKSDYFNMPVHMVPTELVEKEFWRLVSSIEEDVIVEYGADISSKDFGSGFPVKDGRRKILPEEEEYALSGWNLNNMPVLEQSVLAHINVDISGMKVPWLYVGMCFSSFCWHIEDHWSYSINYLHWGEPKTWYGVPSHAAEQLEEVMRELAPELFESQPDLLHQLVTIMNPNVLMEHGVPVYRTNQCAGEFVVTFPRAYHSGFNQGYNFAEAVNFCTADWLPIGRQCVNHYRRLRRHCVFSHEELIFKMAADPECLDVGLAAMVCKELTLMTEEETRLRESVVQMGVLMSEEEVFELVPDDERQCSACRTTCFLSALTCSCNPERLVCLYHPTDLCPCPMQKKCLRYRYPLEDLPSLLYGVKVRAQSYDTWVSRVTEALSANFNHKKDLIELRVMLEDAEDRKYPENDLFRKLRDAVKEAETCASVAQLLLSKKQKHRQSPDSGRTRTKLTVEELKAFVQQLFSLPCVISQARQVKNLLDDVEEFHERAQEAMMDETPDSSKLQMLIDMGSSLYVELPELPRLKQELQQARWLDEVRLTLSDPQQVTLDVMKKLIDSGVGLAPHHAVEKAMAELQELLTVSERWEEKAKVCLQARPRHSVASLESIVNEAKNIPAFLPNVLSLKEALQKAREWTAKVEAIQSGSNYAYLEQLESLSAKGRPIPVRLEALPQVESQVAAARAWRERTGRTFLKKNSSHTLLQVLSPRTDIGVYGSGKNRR

With “2-{5-[(2-methyl-2H-indazol-5-yl)methoxy]-1H-pyrazol-1-yl}pyridine-4-carboxylic acid [Example 51]”, the IC50 (usually the concentration at which inhibition is half-maximal) against Jarid1A was under 0.1 µM; against Jarid1B it was under 0.1 µM; against JMJD2C, 0.1 to 1 µM.

For the compound `Cc1cccc(-c2ccnn2-c2cc(C(=O)O)ccn2)c1` [Example 13, 2-(5-m-tolyl-1H-pyrazol-1-yl)isonicotinic acid], the IC50 at Jarid1A, at Jarid1B and against JMJD2C was 0.1 to 1 µM each time.

Take `O=C(O)c1ccnc(-n2nccc2-c2ccc(F)c(F)c2)c1` [Example 15, 2-(5-(3,4-difluorophenyl)-1H-pyrazol-1-yl)isonicotinic acid]: the IC50 on Jarid1A, against Jarid1B and against JMJD2C was 0.1 to 1 µM each time.

For `O=C(O)c1ccnc(-n2nccc2-c2cccc(F)c2)c1` [Example 16, 2-(5-(3-fluorophenyl)-1H-pyrazol-1-yl)isonicotinic acid], the IC50 against Jarid1A, on Jarid1B and against JMJD2C was 0.1 to 1 µM each time.

Turning to `O=C(O)c1ccnc(-n2nccc2-c2ccc(O)cc2)c1` [Example 18, 2-(5-(4-hydroxyphenyl)-1H-pyrazol-1-yl)isonicotinic acid], the IC50 at Jarid1A, on Jarid1B and against JMJD2C was 0.1 to 1 µM throughout.

Consider `CS(=O)(=O)c1ccc(-c2ccnn2-c2cc(C(=O)O)ccn2)cc1` [Example 19, 2-(5-(4-(methylsulfonyl)phenyl)-1H-pyrazol-1-yl)isonicotinic acid], for which the IC50 lay in the range of 0.1 to 1 µM at Jarid1A, 0.1 to 1 µM against Jarid1B and 1 to 10 µM at JMJD2C.

In the case of `COc1cc(-c2ccnn2-c2cc(C(=O)O)ccn2)ccc1C` [Example 20, 2-(5-(3-methoxy-4-methylphenyl)-1H-pyrazol-1-yl)isonicotinic acid], the IC50 against Jarid1A fell in the range of 0.1 to 1 µM; on Jarid1B, 0.1 to 1 µM; at JMJD2C it was 1 to 10 µM.

As for `Cc1ccc(-c2ccnn2-c2cc(C(=O)O)ccn2)cc1O` [Example 21, 2-(5-(3-hydroxy-4-methylphenyl)-1H-pyrazol-1-yl)isonicotinic acid], the results for the IC50 at Jarid1A, against Jarid1B and against JMJD2C were under 0.1 µM, under 0.1 µM and 0.1 to 1 µM, respectively.

As to `COc1cc(-c2ccnn2-c2cc(C(=O)O)ccn2)ccc1Cl` [Example 22, 2-(5-(4-chloro-3-methoxyphenyl)-1H-pyrazol-1-yl)isonicotinic acid], the IC50 at Jarid1A is 0.1 to 1 µM; against Jarid1B it was 0.1 to 1 µM; against JMJD2C, 1 to 10 µM.

On to `O=C(O)c1ccnc(-n2nccc2-c2ccc(Cl)c(O)c2)c1` [Example 23, 2-(5-(4-chloro-3-hydroxyphenyl)-1H-pyrazol-1-yl)isonicotinic acid], for which the 50% inhibitory concentration (IC50) was in the range of 0.1 to 1 µM against Jarid1A, 0.1 to 1 µM against Jarid1B and 1 to 10 µM at JMJD2C.

Consider `O=C(O)c1ccnc(-n2nccc2-c2ccc3cn[nH]c3c2)c1` [Example 24, 2-[5-(1H-indazol-6-yl)-1H-pyrazol-1-yl]pyridine-4-carboxylic acid], for which the values for the IC50 against Jarid1A, against Jarid1B and against JMJD2C were 0.1 to 1 µM, 0.1 to 1 µM and 1 to 10 µM, respectively.

As for `O=C(O)c1ccnc(-n2nccc2-c2ccccc2)c1` [Example 26, 2-(5-phenyl-1H-pyrazol-1-yl)isonicotinic acid], the IC50 against Jarid1A, against Jarid1B and against JMJD2C was 1 to 10 µM each time.

Regarding `CS(=O)(=O)c1ccc(-c2ccnn2-c2cc(C(=O)O)ccn2)cc1O` [Example 28, 2-(5-(3-hydroxy-4-(methylsulfonyl)phenyl)-1H-pyrazol-1-yl)isonicotinic acid], the IC50 is 0.1 to 1 µM against Jarid1A, 0.1 to 1 µM on Jarid1B and 1 to 10 µM at JMJD2C.

In the case of `Cc1ccc(-c2cc(C)nn2-c2cc(C(=O)O)ccn2)cc1` [Example 29, 2-(3-methyl-5-p-tolyl-1H-pyrazol-1-yl)isonicotinic acid], the IC50 at Jarid1A, against Jarid1B and against JMJD2C was 1 to 10 µM each time.

For the compound `CCc1cc(-c2ccc(C)cc2)n(-c2cc(C(=O)O)ccn2)n1` [Example 30, 2-(3-ethyl-5-p-tolyl-1H-pyrazol-1-yl)isonicotinic acid], the IC50 against Jarid1A was in the range of 1 to 10 µM; at Jarid1B it was 0.1 to 1 µM; at JMJD2C, 1 to 10 µM.

In the case of `Cc1ccnn1-c1cc(C(=O)O)ccn1` [Example 31, 2-(5-methyl-1H-pyrazol-1-yl)isonicotinic acid], the IC50 against Jarid1A lay within 1 to 10 µM; on Jarid1B, 1 to 10 µM; against JMJD2C it was 0.1 to 1 µM.

For the compound `O=C(O)c1ccnc(-n2nccc2CCc2ccccc2)c1` [Example 34, 2-(5-phenethyl-1H-pyrazol-1-yl)isonicotinic acid], the IC50 is 1 to 10 µM on Jarid1A, 1 to 10 µM on Jarid1B and over 10 µM on JMJD2C.

On to `Cc1c(-c2ccccc2)cnn1-c1cc(C(=O)O)ccn1` [Example 36, 2-(5-methyl-4-phenyl-1H-pyrazol-1-yl)isonicotinic acid], for which the IC50 against Jarid1A is 0.1 to 1 µM; on Jarid1B, 0.1 to 1 µM; at JMJD2C it was over 10 µM.

With `COc1cc(C)nn1-c1cc(C(=O)O)ccn1` [Example 37, 2-(5-methoxy-3-methyl-1H-pyrazol-1-yl)isonicotinic acid], the IC50 on Jarid1A, on Jarid1B and at JMJD2C was 1 to 10 µM in each case.

As for `Cc1cc(OCc2ccccc2)n(-c2cc(C(=O)O)ccn2)n1` [Example 38, 2-(5-(benzyloxy)-3-methyl-1H-pyrazol-1-yl)isonicotinic acid], the IC50 was 0.1 to 1 µM against Jarid1A, under 0.1 µM against Jarid1B and 0.1 to 1 µM at JMJD2C.

In the case of `O=C(O)c1ccnc(-n2nccc2OCc2cccc(F)c2)c1` [Example 41, 2-{5-[(3-fluorobenzyl)oxy]-1H-pyrazol-1-yl}pyridine-4-carboxylic acid], the IC50 against Jarid1A, on Jarid1B and on JMJD2C was under 0.1 µM each time.

For `COc1cccc(COc2ccnn2-c2cc(C(=O)O)ccn2)c1` [Example 42, 2-{5-[(3-methoxybenzyl)oxy]-1H-pyrazol-1-yl}pyridine-4-carboxylic acid], the IC50 against Jarid1A, on Jarid1B and on JMJD2C was under 0.1 µM in each case.

With `COc1ccc(COc2ccnn2-c2cc(C(=O)O)ccn2)cc1` [Example 43, 2-{5-[(4-methoxybenzyl)oxy]-1H-pyrazol-1-yl}pyridine-4-carboxylic acid], the results for the IC50 against Jarid1A, on Jarid1B and against JMJD2C were under 0.1 µM, under 0.1 µM and 0.1 to 1 µM, respectively.

Turning to `CCCCc1ccnn1-c1cc(C(=O)O)ccn1` [Example 44, 2-(5-butyl-1H-pyrazol-1-yl)pyridine-4-carboxylic acid], the IC50 on Jarid1A is 1 to 10 µM; on Jarid1B, 1 to 10 µM; on JMJD2C, over 10 µM.

As for `CCCCc1ccn(-c2cc(C(=O)O)ccn2)n1` [Example 45, 2-(3-butyl-1H-pyrazol-1-yl)pyridine-4-carboxylic acid], the 50% inhibitory concentration (IC50) on Jarid1A, at Jarid1B and against JMJD2C was 0.1 to 1 µM throughout.

As for `O=C(O)c1ccnc(-n2nccc2-c2ccc(Br)cc2)c1` [Example 46, 2-[5-(4-bromophenyl)-1H-pyrazol-1-yl]pyridine-4-carboxylic acid], the IC50 at Jarid1A lay within 0.1 to 1 µM; on Jarid1B it was 0.1 to 1 µM; at JMJD2C, 1 to 10 µM.

In the case of `CN(C)c1ccc(-c2ccnn2-c2cc(C(=O)O)ccn2)cc1` [Example 47, 2-{5-[4-(dimethylamino)phenyl]-1H-pyrazol-1-yl}pyridine-4-carboxylic acid], the IC50 against Jarid1A is 0.1 to 1 µM; at Jarid1B, 0.1 to 1 µM; against JMJD2C, 1 to 10 µM.

Consider `Cc1ccc(-c2cc(N)nn2-c2cc(C(=O)O)ccn2)cc1` [Example 48, 2-[3-amino-5-(4-methylphenyl)-1H-pyrazol-1-yl]pyridine-4-carboxylic acid], for which the figures for the IC50 at Jarid1A, against Jarid1B and against JMJD2C were under 0.1 µM, 0.1 to 1 µM and 1 to 10 µM, respectively.

For `O=C(O)c1ccnc(-n2nccc2OCc2ccc(F)c(F)c2)c1` [Example 52, 2-{5-[(3,4-difluorobenzyl)oxy]-1H-pyrazol-1-yl}pyridine-4-carboxylic acid], the IC50 is under 0.1 µM against Jarid1A, under 0.1 µM at Jarid1B and 0.1 to 1 µM against JMJD2C.

For `O=C(O)c1ccnc(-n2nccc2OCc2ccc(Cl)cc2)c1` [Example 53, 2-{5-[(4-chlorobenzyl)oxy]-1H-pyrazol-1-yl}pyridine-4-carboxylic acid], the IC50 at Jarid1A, at Jarid1B and against JMJD2C was under 0.1 µM in each case.

For `O=C(O)c1ccnc(-n2nccc2OCc2ccc(C(F)(F)F)cc2)c1` [Example 54, 2-(5-{[4-(trifluoromethyl)benzyl]oxy}-1H-pyrazol-1-yl)pyridine-4-carboxylic acid], the IC50 on Jarid1A is under 0.1 µM; against Jarid1B it was under 0.1 µM; against JMJD2C, 0.1 to 1 µM.

For the compound `O=C(O)c1ccnc(-n2nccc2OCc2cccc(Cl)c2)c1` [Example 58, 2-{5-[(3-chlorobenzyl)oxy]-1H-pyrazol-1-yl}pyridine-4-carboxylic acid], the IC50 against Jarid1A, against Jarid1B and against JMJD2C was under 0.1 µM throughout.

With `O=C(O)c1ccnc(-n2nccc2OCc2ccccc2F)c1` [Example 59, 2-{5-[(2-fluorobenzyl)oxy]-1H-pyrazol-1-yl}pyridine-4-carboxylic acid], the IC50 against Jarid1A, against Jarid1B and against JMJD2C was under 0.1 µM throughout.

`O=C(O)c1ccnc(-n2nccc2OCc2cccnc2)c1` [Example 60, 2-[5-(pyridin-3-ylmethoxy)-1H-pyrazol-1-yl]pyridine-4-carboxylic acid]: the IC50 is under 0.1 µM against Jarid1A, under 0.1 µM against Jarid1B and 0.1 to 1 µM at JMJD2C.

With `O=C(O)c1ccnc(-n2nccc2OCc2ccncc2)c1` [Example 61, 2-[5-(pyridin-4-ylmethoxy)-1H-pyrazol-1-yl]pyridine-4-carboxylic acid], the IC50 against Jarid1A, against Jarid1B and on JMJD2C was under 0.1 µM in each case.

Source of the values: US9604961B2, “Histone demethylase inhibitors” (Celgene Quanticel Research, Inc., priority 2012, dated 2017).
